Measurements taken from patent US5616716A, “(3-(5-ethoxypyridin)yl)-alkenyl 1 amine compounds” (priority 1996, dated 1997).

Key:
[1] = target: CNS nicotinic receptors (thalamic synaptosomes); assay: Determination of ion flux from thalamic synaptosomes (^86 Rb+ efflux; receptor activation); assay type: biochemical, rat; details: for Receptor Activation Emax: percent of Emax for tetramethylammonium
Experimental: Determination of ion flux from thalamic synaptosomes
Rat brains were dissected and midbrain (thalamus and mesencephalon) removed. The midbrain was then placed into a tube on ice, homogenized, and centrifuged at 2800 rpm for 10 minutes. The supernatant was collected and centrifuged for another 20 minutes at 9650 rpm The resulting pellet was resuspended by trituration in 700 ul ice cold perfusion buffer. Synaptosomes were then loaded with ^86 Rb+ Ion efflux was determined using the methods of Marks et al., J. Pharmacol. Exp. Ther., Vol. 264, pp. 427-436 (1993). Total efflux was determined by subtraction of basal release from release at stimulation (total peak release). The ratio of the peak to baseline (Rp) was calculated for each concentration. A tetramethylammonium control (i.e., a full agonist to the receptor of interest) is used in each assay to compare each agonist's ability to stimulate rubidium efflux to the control. Emax values are reported as a percent of Emax for tetramethylammonium.

nicotinic receptors = assay: Binding of compounds to relevant receptor sites (inhibition of L-[^3 H]nicotine binding, rat brain membranes); design: species or system rat (Sprague-Dawley); details: inhibition of L-[^3 H]nicotine (10 nM) binding
Experimental: Rats (Sprague-Dawley) were maintained on a 12 hour light/dark cycle and were allowed free access to water and food supplied by Wayne Lab Blox, Madison, Wis. Animals used in the present studies weighed 200 to 250 g. Brain membrane preparations were obtained from brain tissue of either males or females.
Rats were killed by decapitation following anesthesia with 70% CO2. Brains were removed and placed on an ice-cold platform.
The incubation buffer was Krebs-Ringers HEPES containing 200 mM TRIS buffer, pH 7.5. The binding reaction was terminated by filtration of the protein containing bound ligand onto glass fiber filters (Micro Filtration Systems) that had been soaked in buffer containing 0.5 percent polyethyleneimine. Filtration vacuum was -50 to -100 torr. Each filter was washed five times with 3 ml of ice-cold buffer. […] Nonspecific binding was determined by inclusion of 10 uM nonradioactive nicotine in the incubations.
The inhibition of L-[^3 H]nicotine binding by test compounds was determined by including one of eight different concentrations of the test compound in the incubation.

[2] = target: T1, ganglionic-type neuronal nicotinic receptors (PC12) (Rattus norvegicus, UniProt P04757+P12392); assay: cell-based; details: PC12, ^86 Rb^+ efflux, percentage of maximal activation induced by (S)-(-)-nicotine
T1 construct: Ganglionic effects were established on the rat pheochromocytoma clonal line PC12; endogenous in cells; host or cells: PC12 (rat pheochromocytoma)
From the text: Determination of Interaction with Ganglia
Ganglionic effects were established on the rat pheochromocytoma clonal line PC12, which is a continuous clonal cell line of neural crest origin derived from a tumor of the rat adrenal medulla expressing ganglionic-typeneuronal nicotinic receptors (see Whiting et al., Nature, Vol. 327, pp. 515-518 (1987); Lukas, J. Pharmacol. Exp. Ther., Vol. 251, pp. 175-182 (1989); Whiting et al., Mol. Brain Res., Vol. 10, pp. 61-70 (1990)). Discussion concerning the heterogeneity of nicotinic receptors subtypes is set forth in Lukas et al. Internatl. Review Neurobiol., Vol. 34, pp. 25-130 (1992). Acetylcholine nicotinic receptors expressed in rat ganglia share a very high degree of homology with their human counterparts. See, Fomasari et al., Neurosci. Lett., Vol. 111, pp. 351-356 (1990) and Chini et al., Proc. Natl. Acad. Sci. USA, Vol. 89, pp. 1572-1576 (1992 ). Both clonal cell lines described above were maintained in proliferative growth phase according to routine protocols (Bencherif et al., Mol. Cell, Neurosci., Vol. 2, pp. 52-65, (1991 ) and Bencheft et al., J. Pharmacol. Exp. Ther., Vol. 257, pp. 946-953 (1991)). Intact cells on dishes were used for functional studies. Routinely, sample aliquots were reserved for determination of protein concentration using the method of Bradford, Anal. Biochem., Vol. 72, pp. 248-254 (1976) with bovine serum albumin as the standard.
(§1) Nicotinic acetylcholine receptor (nAChR) function was assayed using ^86 Rb^+ efflux according to a method described by Lukas et al., Anal. Biochem., Vol. 175, pp. 212-218 (1.988). […] The medium was removed and ^86 Rb^+ was quantitated using Cerenkov detection (see Lukas et al., Anal. Biochem., Vol. 175, pp. 212-218 (1988)). Specific ion efflux was determined as the difference in isotope efflux between total and non-specific efflux samples. Dose-response curves were plotted and the concentration resulting in half maximal activation of specific ion flux through nicotinic receptors determined for human muscle and rat ganglionic preparations (EC50).

[3] = test system: dopamine release from striatal synaptosomes; assay: Determination of dopamine release (striatal synaptosomes); assay type: biochemical, rat (Sprague-Dawley); details: rat striatal synaptosomes; for Dopamine Release Emax: percentage of release obtained with (S)-(-)-nicotine
Experimental: Determination of Dopamine Release
Dopamine release was measured by preparing synaptosomes from the striatal area of rat brain obtained from Sprague-Dawley rats generally according to the procedures set forth by Nagy et al. J. Neurochem., Vol. 43, pp. 1114-1123 (1984). Striata from 4 rats were homogenized in 2 ml of 0.32M sucrose buffered with 5 mM HEPES (pH 7.5), using a glass-Teflon tissue grinder. The homogenate was diluted to 5 ml with additional homogenization solution and centrifuged at 1,000 ×g for 10 min. This procedure was repeated on the new pellet and the resulting supernatant was centrifuged at 12,000 ×g for 20 min. A 3 layer discontinuous Percoll gradient consisting of 16 percent, 10 percent and 7.5 percent Percoil in HEPES-buffered sucrose was made with the final pellet dispersed in the top layer. After centrifugation at 15,000 ×g for 20 min., the synaptosomes were recovered above the 16 percent layer with a Pasteur pipette, diluted with 8 ml of perfusion buffer (128 mM NaCl, 2.4 mM KCl, 3.2 mM CaCl2, 1.2 KH2 PO4, 1.2 mM MgSO4, 25 mM HEPES pH 7.4, 10 mM dextrose, 1 mM ascorbate, 0.01 mM pargyline), and centrifuged at 15,000 ×g for 20 min. The new pellet was collected and re-suspended in perfusion buffer. The synaptosome suspension was incubated for 10 min. at 37 ° C. [^3 H]-Dopamine (Amersham, 40-60 Ci/mmol) was added to the suspension to give a final concentration of 0.1 uM, and the suspension was incubated for another 5 min. Using this method, 30 to 90 percent of the dopamine was taken up into the synaptosomes, as determined by scintillation counting following filtration through glass fiber filters soaked with 0.5 percent polyethyleneimine. A continuous perfusion system was used to monitor release following exposure to each ligand. Synaptosomes were loaded onto glass fiber filters (Gelman type A/E). Perfusion buffer was dripped onto the filters (0.2-0.3 ml/min.) and pulled through the filters with a peristaltic pump. Synaptosomes were washed with perfusion buffer for a minimum of 20 min. before addition of the ligand. After the addition of 0.2 ml of a solution containing various concentrations of ligand, the perfusate was collected into scintillation vials at 1 min. intervals and the dopamine released was quantified by scintillation counting. Peaks of radioactivity released above background were summed and the average basal release during that time was subtracted from the total. Release was expressed as a percentage of release obtained with an equal concentration of(S)--(-)--nicotine.

[4] = target: T2, muscle-like nicotinic receptors (TE671/RD) (Homo sapiens, UniProt P02708+P07510+Q07001); assay: cell-based; details: ^86 Rb^+ efflux, read-out: Muscle Effect EC50
T2 construct: these cells express muscle-like nicotinic receptors; endogenous in cells; host or cells: TE671/RD (human embryonal rhabdomyosarcoma)
From the text: Determination of Interaction with Muscle
Human muscle activation was established on the human clonal line TE671/RD which is derived from an embryonal rhabdomyosarcoma (Stratton et al., Carcinogen, Vol. 10, pp. 899-905 (1989)). As evidenced through pharmacological (Lukas, J. Pharmacol. Exp. Ther., Vol. 251, pp. 175-182 (1989)), electrophysiological (Oswald et al., Neurosci. Lett., Vol. 96, pp. 207-212 (1989)), and molecular biological studies (Luther et al., J. Neurosci., Vol. 9, pp. 1082-1096 (1989)) these cells express muscle-like nicotinic receptors. Nicotinic acetylcholine receptor (nAChR) function was assayed using ^86 Rb^+ efflux according to a method described by Lukas et al., Anal. Biochem., Vol. 175, pp. 212-218 (1988). Dose-response curves were plotted and the concentration resulting in half maximal activation of specific ion flux through nicotinic receptors determined for human muscle and rat ganglionic preparations (EC50).
as §1, with “Dose-response curves were plotted and the concentration resulting in half maximal activation of specific ion flux through nicotinic receptors determined for human muscle and rat ganglionic preparations (EC50).” left out

T1 sequence (P04757 26-499): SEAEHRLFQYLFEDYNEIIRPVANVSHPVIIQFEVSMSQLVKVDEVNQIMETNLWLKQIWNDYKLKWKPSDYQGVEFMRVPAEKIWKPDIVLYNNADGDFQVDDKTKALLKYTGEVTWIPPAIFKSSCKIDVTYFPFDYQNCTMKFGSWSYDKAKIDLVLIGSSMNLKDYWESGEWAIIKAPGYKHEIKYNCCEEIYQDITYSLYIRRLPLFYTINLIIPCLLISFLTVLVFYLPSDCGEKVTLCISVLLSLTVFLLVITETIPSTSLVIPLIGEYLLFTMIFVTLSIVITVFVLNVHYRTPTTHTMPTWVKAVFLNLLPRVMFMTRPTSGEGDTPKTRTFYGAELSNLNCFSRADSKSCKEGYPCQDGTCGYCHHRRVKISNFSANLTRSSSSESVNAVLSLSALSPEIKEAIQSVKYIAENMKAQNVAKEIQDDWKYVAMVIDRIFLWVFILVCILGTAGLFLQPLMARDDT
T1 sequence (P12392 21-495): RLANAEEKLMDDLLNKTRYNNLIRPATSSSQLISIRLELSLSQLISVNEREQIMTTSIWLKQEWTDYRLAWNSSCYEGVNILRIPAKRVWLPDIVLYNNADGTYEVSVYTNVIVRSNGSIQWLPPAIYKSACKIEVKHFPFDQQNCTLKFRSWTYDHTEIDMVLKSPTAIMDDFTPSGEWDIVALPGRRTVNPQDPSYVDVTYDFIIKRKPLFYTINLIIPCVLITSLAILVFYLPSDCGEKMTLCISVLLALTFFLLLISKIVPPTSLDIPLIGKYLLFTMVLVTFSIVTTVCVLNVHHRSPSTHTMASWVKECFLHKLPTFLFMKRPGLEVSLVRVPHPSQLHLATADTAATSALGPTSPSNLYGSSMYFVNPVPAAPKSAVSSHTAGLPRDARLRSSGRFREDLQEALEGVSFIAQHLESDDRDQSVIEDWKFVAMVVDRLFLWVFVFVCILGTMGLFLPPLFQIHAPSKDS
T2 sequence (Q07001 22-517): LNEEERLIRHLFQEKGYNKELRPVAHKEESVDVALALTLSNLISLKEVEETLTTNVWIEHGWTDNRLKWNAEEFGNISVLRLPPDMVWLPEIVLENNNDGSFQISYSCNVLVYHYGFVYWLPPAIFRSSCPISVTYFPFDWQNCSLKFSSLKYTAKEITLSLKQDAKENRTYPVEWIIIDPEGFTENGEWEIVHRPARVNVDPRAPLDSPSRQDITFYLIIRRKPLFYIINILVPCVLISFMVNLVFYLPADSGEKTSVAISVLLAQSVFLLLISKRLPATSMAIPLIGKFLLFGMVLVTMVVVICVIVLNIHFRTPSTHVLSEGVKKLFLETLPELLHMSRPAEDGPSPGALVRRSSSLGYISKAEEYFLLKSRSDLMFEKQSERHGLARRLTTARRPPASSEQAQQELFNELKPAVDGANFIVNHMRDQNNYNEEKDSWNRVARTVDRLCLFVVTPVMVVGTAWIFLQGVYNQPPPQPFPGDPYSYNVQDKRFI
T2 sequence (P07510 23-517): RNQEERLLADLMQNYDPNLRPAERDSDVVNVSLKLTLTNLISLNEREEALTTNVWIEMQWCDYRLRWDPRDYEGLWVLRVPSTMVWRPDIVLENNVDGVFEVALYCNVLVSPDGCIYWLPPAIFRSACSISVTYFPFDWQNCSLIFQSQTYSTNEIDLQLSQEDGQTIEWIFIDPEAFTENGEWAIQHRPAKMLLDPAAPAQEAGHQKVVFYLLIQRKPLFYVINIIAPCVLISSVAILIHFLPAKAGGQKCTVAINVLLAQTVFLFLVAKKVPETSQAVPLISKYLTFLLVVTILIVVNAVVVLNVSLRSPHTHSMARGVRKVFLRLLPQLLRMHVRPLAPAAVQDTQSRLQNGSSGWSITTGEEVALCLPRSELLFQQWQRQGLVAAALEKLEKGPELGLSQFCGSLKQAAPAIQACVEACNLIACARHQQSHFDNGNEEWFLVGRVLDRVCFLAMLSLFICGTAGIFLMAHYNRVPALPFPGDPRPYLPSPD
T2 sequence (P11230 24-501, further chain): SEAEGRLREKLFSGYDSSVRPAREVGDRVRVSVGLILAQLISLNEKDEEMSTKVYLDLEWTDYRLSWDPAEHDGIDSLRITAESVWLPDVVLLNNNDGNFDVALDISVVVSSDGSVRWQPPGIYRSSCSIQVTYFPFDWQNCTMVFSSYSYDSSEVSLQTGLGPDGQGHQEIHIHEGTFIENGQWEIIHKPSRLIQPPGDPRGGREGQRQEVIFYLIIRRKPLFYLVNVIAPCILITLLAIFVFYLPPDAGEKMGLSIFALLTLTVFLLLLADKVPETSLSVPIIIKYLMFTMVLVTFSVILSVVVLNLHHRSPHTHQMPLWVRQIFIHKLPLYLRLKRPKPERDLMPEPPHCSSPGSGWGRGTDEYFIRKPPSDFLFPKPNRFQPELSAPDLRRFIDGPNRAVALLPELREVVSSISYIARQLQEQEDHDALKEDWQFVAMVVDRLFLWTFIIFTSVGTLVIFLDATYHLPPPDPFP
T2 sequence (P02708 21-457): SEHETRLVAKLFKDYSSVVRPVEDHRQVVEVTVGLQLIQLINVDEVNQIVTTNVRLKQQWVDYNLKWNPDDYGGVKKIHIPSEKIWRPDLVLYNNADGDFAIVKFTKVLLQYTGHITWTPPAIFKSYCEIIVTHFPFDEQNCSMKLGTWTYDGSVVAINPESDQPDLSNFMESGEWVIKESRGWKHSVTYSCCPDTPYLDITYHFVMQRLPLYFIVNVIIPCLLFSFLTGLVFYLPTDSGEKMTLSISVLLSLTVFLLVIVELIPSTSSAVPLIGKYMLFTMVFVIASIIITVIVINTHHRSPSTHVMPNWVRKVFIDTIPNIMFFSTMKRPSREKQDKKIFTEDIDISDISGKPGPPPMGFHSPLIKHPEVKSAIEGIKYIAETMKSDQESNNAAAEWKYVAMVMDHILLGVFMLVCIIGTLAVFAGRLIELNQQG

Structure (SMILES)	EC50 [1]	Receptor Activation Emax [1]	Ki (nicotinic receptors)	Emax ([2]; PC-12, read-out: Ganglion Effect Emax)	EC50 [3]	Dopamine Release Emax [3]	Ganglion Effect Emax [2]	EC50 [4]
CCOc1cncc(/C=C/CCNC)c1 [Sample No. 1, (E)-N-methyl-4-[3-(5-ethoxypyridin)yl]-3-buten-1-amine]	269 nM	67%	9 nM	0%	287 nM	124%	–	–
CNC(C)C/C=C/c1cccnc1 (centres unmarked) [Sample No. 2, (E)-N-methyl-5-(3-pyridinyl)-4-penten-2-amine]	1700 nM	35%	82 nM	–	21400 nM	182%	6%	–
CNCC/C=C/c1cncc(OC)c1 [Sample No. 3, (E)-N-methyl-4-[3-(5-methoxypyridin)yl]-3-buten-1-amine]	470 nM	62%	7 nM	–	2340 nM	106%	0%	–
CN1CCC[C@H]1c1cccnc1 [Sample No. C-1, (S)--(-)--nicotine, reference compound]	–	87%	–	–	100 nM	100%	–	80000 nM
CNCC/C=C/c1cccnc1 [Sample No. C-2, (E)-metanicotine, reference compound]	732 nM	79%	–	–	1160 nM	81%	–	–
